# In patent US7138361B2, “Herbicidal heterocycles” (E. I. du Pont de Nemours and Company, priority 2000, dated 2006):
# How the values were obtained:
# Format in all cases: in vivo
# [1] = tested on: Sunflower; test: Test C preemergence; settings: Rate 250 g/ha, scale 0 to 100, 0 no effect, 100 complete control
# [2] = tested on: Sunflower; test: Test C preemergence; settings: Rate 500 g/ha, visual evaluation after 12 to 14 days
# [3] = tested on: kochia (Kochia scoparia); test: Test C preemergence
# Outline: (§1)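 Preemergence: seeds sown then treated. Postemergence: plants 2–18 cm, 1- to 4-leaf. Both with surfactant-containing solvent formulation; visual injury scored 0–100 after 12–14 d.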
# [4] = tested on: bermudagrass (Cynodon dactylon); test: Test C preemergence
# Outline: as §1
# [5] = tested on: cocklebur (Xanthium strumarium); test: Test C preemergence
# Outline: as §1
# [6] = tested on: Sunflower; test: Test C preemergence; settings: Rate 125 g/ha; scale 0 to 100, 0 no effect, 100 complete control
# [7] = tested on: velvetleaf (Abutilon theophrasti); test: Test C preemergence
# Outline: as §1
# [8] = tested on: soybean (Glycine max); test: Test C preemergence
# Outline: as §1
# [9] = tested on: crabgrass (Digitaria sanguinalis); test: Test C preemergence
# Outline: as §1
# [10] = tested on: goosegrass (Eleusine indica); test: Test C preemergence
# Outline: as §1
# [11] = tested on: giant foxtail (Setaria faberii); test: Test B postemergence; settings: Rate 125 g/ha, scale 0 to 100, 0 no effect, 100 complete control
# Outline: (§2)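 Pre: seeded pots sprayed, chemical in non-phytotoxic solvent/surfactant mix. Post: plants 2–18 cm, 1–4 leaf, same formulation. Greenhouse 13–15 d; visual % control vs untreated, 0–100 scale.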
# [12] = tested on: Surinam grass (Brachiaria decumbens); test: Test B postemergence
# Outline: as §2
# [13] = tested on: barnyardgrass (Echinochloa crus-galli); test: Test B postemergence
# Outline: as §2
# [14] = tested on: pigweed (Amaranthus retroflexus); test: Test B postemergence; settings: Rate 125 g/ha, scale 0 to 100, 0 no effect, 100 complete control
# Outline: as §2
# [15] = tested on: corn (Zea mays); test: Test B postemergence
# Outline: as §2
# [16] = tested on: blackgrass (Alopecurus myosuroides); test: Test B postemergence
# Outline: as §2
# [17] = tested on: wild oat (Avena fatua); test: Test B postemergence; settings: Rate 125 g/ha, scale 0 to 100, 0 no effect, 100 complete control
# Outline: as §2
# [18] = tested on: cocklebur (Xanthium strumarium); test: Test B postemergence
# Outline: as §2
# [19] = tested on: velvetleaf (Abutilon theophrasti); test: Test B postemergence; settings: Rate 125 g/ha, scale 0 to 100, 0 no effect, 100 complete control
# Outline: as §2
# [20] = tested on: morning glory (Ipomoea hederacea); test: Test B postemergence; settings: Rate 125 g/ha, scale 0 to 100, 0 no effect, 100 complete control
# Outline: as §2
# [21] = tested on: crabgrass (Digitaria sanguinalis); test: Test B postemergence; settings: Rate 125 g/ha, scale 0 to 100, 0 no effect, 100 complete control
# Outline: as §2
# [22] = tested on: lambsquarters (Chenopodium album); test: Test B postemergence; settings: Rate 125 g/ha, scale 0 to 100, 0 no effect, 100 complete control
# Outline: as §2
# [23] = tested on: wheat (Triticum aestivum); test: Test B postemergence; settings: Rate 125 g/ha, scale 0 to 100, 0 no effect, 100 complete control
# Outline: as §2
# [24] = Rate 125 g/ha, scale 0 to 100, 0 no effect, 100 complete control
# [25] = preemergence, Rate 62 g/ha, scale 0 to 100
# [26] = preemergence, Rate 500 g/ha, visual evaluation after 12 to 14 days
# [27] = preemergence, Rate 250 g/ha, scale 0 to 100, 0 no effect, 100 complete control
# [28] = Rate 500 g/ha, scale 0 to 100, 0 is no effect, 100 is complete control, 13 to 15 days
compound,measurement,setting,value
CCC(C)c1ccn(C2OCN(c3cccc(OC(F)F)c3)C2=O)n1 (stereo not shown) [Compound 134],"Plant response rating, Sunflower",[1],0
same,"Plant response rating (0 to 100), Sunflower",[2],20
same,"Plant response rating, Kochia",[3]; [24],100
same,"Plant response rating, Kochia",[3]; [25],100
same,"Plant response rating (0 to 100), Kochia",[3]; [26],100
same,"Plant response rating, Kochia",[3]; [27],100
same,"Plant response rating, Bermudagrass",[4]; [24],100
same,"Plant response rating, Bermudagrass",[4]; [25],100
same,"Plant response rating (0 to 100 where 0 is no effect and 100 is complete control), Bermudagrass",[4]; [26],100
same,"Plant response rating, Bermudagrass",[4]; [27],100
same,"Plant response rating, Cocklebur",[5]; [24],0
same,"Plant response rating, Cocklebur",[5]; [25],0
same,"Plant response rating (0 to 100), Cocklebur",[5]; [26],0
same,"Plant response rating, Cocklebur",[5]; [27],0
same,"Plant response rating, Sunflower",[6],0
same,"Plant response rating, Velvetleaf",[7]; [24],20
same,"Plant response rating, Velvetleaf",[7]; [25],20
same,"Plant response rating (0 to 100), Velvetleaf",[7]; [26],20
same,"Plant response rating, Velvetleaf",[7]; [27],20
same,"Plant response rating, Soybean",[8]; [24],0
same,"Plant response rating, Soybean",[8]; [25],0
same,"Plant response rating (0 to 100), Soybean",[8]; [26],20
same,"Plant response rating, Soybean",[8]; [27],0
same,"Plant response rating, Crabgrass",[9]; [24],100
same,"Plant response rating, Crabgrass",[9]; [25],100
same,"Plant response rating (0 to 100), Crabgrass",[9]; [26],100
same,"Plant response rating, Crabgrass",[9]; [27],100
same,"Plant response rating, Goosegrass",[10]; [24],100
same,"Plant response rating, Goosegrass",[10]; [25],100
same,"Plant response rating (0 to 100), Goosegrass",[10]; [26],100
same,"Plant response rating, Goosegrass",[10]; [27],100
same,"Plant response rating, Foxtail, Giant",[11],30
same,"Plant response rating, Surinam grass",[12]; [24],20
same,"Plant response rating, Surinam grass",[12]; [28],60
same,"Plant response rating, Barnyardgrass",[13]; [24],90
same,"Plant response rating, Barnyardgrass",[13]; [28],100
same,"Plant response rating, Pigweed",[14],60
same,"Plant response rating, Corn",[15]; [24],0
same,"Plant response rating, Corn",[15]; [28],20
same,"Plant response rating, Blackgrass",[16]; [24],0
same,"Plant response rating, Blackgrass",[16]; [28],0
same,"Plant response rating, Wild Oat",[17],0
same,"Plant response rating, Cocklebur",[18]; [24],30
same,"Plant response rating, Cocklebur",[18]; [28],30
same,"Plant response rating, Velvetleaf",[19],0
same,"Plant response rating, Morningglory",[20],10
same,"Plant response rating, Crabgrass",[21],20
same,"Plant response rating, Lambsquarters",[22],100
same,"Plant response rating, Wheat",[23],0
